Test results from patent US12065654B2, “Plants having increased tolerance to herbicides” (BASF SE, priority 2014, dated 2024).
Like-named read-outs stand apart in the source and are kept apart here.

Experiments:
Type in all cases: in vivo, Arabidopsis thaliana
[1] = test system: transgenic Arabidopsis plants (T2) HvHPPD L320H; conditions: for Injury evaluation: Arabidopsis T2 HvHPPD L320H, two weeks after treatment
Text: (§1) For post emergence treatment, the test plants are first grown to a height of 3 to 15 cm, depending on the plant habit, and only then treated with the herbicides. For this purpose, the test plants are either sown directly and grown in the same containers, or they are first grown separately and transplanted into the test containers a few days prior to treatment.
(§2) Herbicide injury scoring is done 2-3 weeks after treatment and is rated on a scale of 0 to 100%, 0% being no injury and 100% being complete death.
(§3) Transgenic Arabidopsis plants were sprayed with a range of doses from 0.78-6.25 g/ha of different HPPD-inhibiting herbicides and injury evaluations were taken two weeks after treatment.

[2] = test system: Arabidopsis overexpression line Hordeum L320Q; assay: Germination assay in 48-well plates; conditions: IC50 transgenic / wildtype, mean of 5 T2 events
Experimental: (§4) Depending on the species, the plants are kept at 10-25° C. or 20-35° C. The test period extends over 3 weeks. During this time, the plants are tended and their response to the individual treatments is evaluated. Herbicide injury evaluations are taken at 2 and 3 weeks after treatment. Plant injury is rated on a scale of 0 to 9, 0 being no injury and 9 being complete death. Tolerance to HPPD-inhibiting, preferably pyrazolone, isoxazole, or triketone derivative herbicides can also be assessed in Arabidopsis. In this case transgenic Arabidopsis thaliana plants are assayed for improved tolerance to HPPD-inhibiting, preferably pyrazolone, isoxazole, or triketone derivative herbicides in 48-well plates. Seeds are surface sterilized by stirring for 5 min in ethanol+water (70+30 by volume), rinsing one time with ethanol+water (70+30 by volume) and two times with a sterile, deionized water. The seeds are resuspended in 0.1% agar dissolved in water (w/v). Four to five seeds per well are plated on solid nutrient medium consisting of half-strength Murashige Skoog nutrient solution, pH 5.8 (Murashige and Skoog (1962) Physiologia Plantarum 15: 473-497). Compounds are dissolved in dimethylsulfoxid (DMSO) and added to the medium prior solidification (final DMSO concentration 0.1%). Multi well plates are incubated in a growth chamber at 22° C., 75% relative humidity and 110 μmol Phot*m−2*s−1 with 14:10 h light:dark photoperiod. Seven to ten days after seeding growth inhibition is evaluated by comparison to wild type plants. Tolerance factor is calculated by dividing the plant growth IC50 value of transgenic plants containing a HPPD and/or HST sequence by that of wildtype plants.

[3] = test system: Arabidopsis overexpression line Picrophilus HPPD; assay: Germination assay in 48-well plates; conditions: IC50 transgenic / wildtype, mean of 5 T2 events
Experimental: as §4

[4] = test system: Arabidopsis overexpression line Rhodococcus HPPD2; assay: Germination assay in 48-well plates; conditions: IC50 transgenic / wildtype, mean of 5 T2 events
Experimental: as §4

[5] = test system: Arabidopsis overexpression line Hordeum L320H, P321A; assay: Germination assay in 48-well plates; conditions: IC50 transgenic / wildtype, mean of 5 T2 events
Experimental: as §4

[6] = test system: Arabidopsis overexpression line Arabidopsis M335H; assay: Germination assay in 48-well plates; conditions: IC50 transgenic / wildtype, mean of 5 T2 events
Experimental: as §4

[7] = test system: Arabidopsis overexpression line Arabidopsis F381I; assay: Germination assay in 48-well plates; conditions: IC50 transgenic / wildtype, mean of 5 T2 events
Experimental: as §4

[8] = test system: Arabidopsis overexpression line Arabidopsis M335H, P336A, E363Q; assay: Germination assay in 48-well plates; conditions: IC50 transgenic / wildtype, mean of 5 T2 events
Experimental: as §4

[9] = test system: transgenic Arabidopsis plants (T2) AtHPPD M335Y, P336A, E363Q; assay: Greenhouse herbicide spray test; conditions: two weeks after treatment
Text: as §1, §2, §3

[10] = test system: transgenic Arabidopsis plants (T2) AtHPPD F381I; assay: Greenhouse herbicide spray test; conditions: two weeks after treatment
Text: as §1, §2, §3

[11] = test system: transgenic Arabidopsis plants (T2) AtHPPD M335H, P336A, E363Q; assay: Greenhouse herbicide spray test; conditions: two weeks after treatment
Text: as §1, §2, §3

[12] = test system: Arabidopsis plants, transgene none (WT); assay: Greenhouse herbicide spray test; conditions: two weeks after treatment
Text: as §1, §2, §3

[13] = test system: transgenic Arabidopsis plants (T2) PtHPPD WT (Picrophilus HPPD); assay: Greenhouse herbicide spray test; conditions: for Injury evaluation: Arabidopsis T2 PtHPPD WT, two weeks after treatment
Text: as §1, §2, §3

[14] = test system: transgenic Arabidopsis plants (T2) HvHPPD L320H, P321A; assay: Greenhouse herbicide spray test; conditions: two weeks after treatment
Text: as §1, §2, §3

[15] = Table 18, no transgene, 0.78 g/ha
[16] = Table 18, no transgene, 1.56 g/ha
[17] = Table 18, no transgene, 3.125 g/ha
[18] = Table 18, no transgene, 6.25 g/ha
[19] = Table 19, no transgene, 0.78 g/ha
[20] = Table 19, no transgene, 1.56 g/ha
[21] = Table 19, no transgene, 3.125 g/ha
[22] = Table 19, no transgene, 6.25 g/ha

SMILES: Cc1c(C(=O)c2cnn(C)c2O)ccc(S(C)(=O)=O)c1C1=NOCC1 [Inhibitor 1, [3-(4,5-dihydroisoxazol-3-yl)-2-methyl-4-methylsulfonyl-phenyl]-(5-hydroxy-1-methyl-pyrazol-4-yl)methanone]
- fold increased tolerance ([1]; Arabidopsis HvHPPD L320H, lowest concentration tested): 6.5 fold
- Injury evaluation ([1]; 0.78 g/ha): 13%
- Injury evaluation ([1]; 1.56 g/ha): 57%
- Injury evaluation ([1]; 3.125 g/ha): 68%
- Injury evaluation ([1]; 6.25 g/ha): 94%
- Tolerance factor [2]: 100
- Tolerance factor [3]: 10
- Tolerance factor [4]: 32
- Tolerance factor [5]: 300
- Tolerance factor [6]: 10
- Tolerance factor [7]: 90
- Tolerance factor [8]: 25
- Injury evaluation ([9]; 0.78 g/ha): 12%
- Injury evaluation ([9]; 1.56 g/ha): 21%
- Injury evaluation ([9]; 3.125 g/ha): 42%
- Injury evaluation ([9]; 6.25 g/ha): 68%
- Injury evaluation ([10]; 1.56 g/ha): 43%
- Injury evaluation ([10]; 3.125 g/ha): 55%
- Injury evaluation ([10]; 6.25 g/ha): 70%
- Injury evaluation ([11]; 0.78 g/ha): 0%
- Injury evaluation ([11]; 1.56 g/ha): 10%
- Injury evaluation ([11]; 3.125 g/ha): 15%
- Injury evaluation ([11]; 6.25 g/ha): 15%
- Injury evaluation [12, 15]: 89%
- Injury evaluation [12, 16]: 99%
- Injury evaluation [12, 17]: 99%
- Injury evaluation [12, 18]: 100%
- Injury evaluation [12, 19]: 85%
- Injury evaluation [12, 20]: 88%
- Injury evaluation [12, 21]: 96%
- Injury evaluation [12, 22]: 99%
- Injury evaluation ([13]; 0.78 g/ha): 13%
- Injury evaluation ([13]; 1.56 g/ha): 17%
- Injury evaluation ([13]; 3.125 g/ha): 62%
- Injury evaluation ([13]; 6.25 g/ha): 99%
- fold less susceptible compared to the control ([13]; Arabidopsis expressing Picrophilus HPPD, dose of 3,125 g/ha): 1.6 fold
- fold tolerance compared to the control ([13]; Arabidopsis expressing Picrophilus HPPD, two lowest application rates): 6.8 fold
- Injury evaluation ([14]; 0.78 g/ha): 0%
- Injury evaluation ([14]; 1.56 g/ha): 0%
- Injury evaluation ([14]; 3.125 g/ha): 0%
- Injury evaluation ([14]; 6.25 g/ha): 0%

SMILES: CS(=O)(=O)c1ccc(C(=O)C2C(=O)CCCC2=O)c([N+](=O)[O-])c1 [Inhibitor 2, 2-(4-methylsulfonyl-2-nitro-benzoyl)cyclohexane-1,3-dione]
- resistance (in words) ([1]; Arabidopsis HvHPPD L320H, 0.78-6.25 g/ha): resistant
- Injury evaluation ([1]; 0.78 g/ha): 0%
- Injury evaluation ([1]; 1.56 g/ha): 0%
- Injury evaluation ([1]; 3.125 g/ha): 0%
- Injury evaluation ([1]; 6.25 g/ha): 0%
- Injury evaluation ([9]; 0.78 g/ha): 5%
- Injury evaluation ([9]; 1.56 g/ha): 12%
- Injury evaluation ([9]; 3.125 g/ha): 21%
- Injury evaluation ([9]; 6.25 g/ha): 38%
- Injury evaluation ([10]; 1.56 g/ha): 20%
- Injury evaluation ([10]; 3.125 g/ha): 25%
- Injury evaluation ([10]; 6.25 g/ha): 78%
- Injury evaluation ([11]; 0.78 g/ha): 3%
- Injury evaluation ([11]; 1.56 g/ha): 0%
- Injury evaluation ([11]; 3.125 g/ha): 13%
- Injury evaluation ([11]; 6.25 g/ha): 12%
- Injury evaluation [12, 15]: 78%
- Injury evaluation [12, 16]: 95%
- Injury evaluation [12, 17]: 100%
- Injury evaluation [12, 18]: 99%
- Injury evaluation [12, 19]: 93%
- Injury evaluation [12, 20]: 99%
- Injury evaluation [12, 21]: 100%
- Injury evaluation [12, 22]: 100%
- Injury evaluation ([13]; 0.78 g/ha): 0%
- Injury evaluation ([13]; 1.56 g/ha): 0%
- Injury evaluation ([13]; 3.125 g/ha): 3%
- Injury evaluation ([13]; 6.25 g/ha): 0%
- leaf damage (in words) ([13]; Arabidopsis overexpressing Picrophilus HPPD (SEQ-ID:40), tested application rates 0.78-6.25 g/ha): no leaf damages could be observed
- Injury evaluation ([14]; 0.78 g/ha): 0%
- Injury evaluation ([14]; 1.56 g/ha): 0%
- Injury evaluation ([14]; 3.125 g/ha): 0%
- Injury evaluation ([14]; 6.25 g/ha): 0%
